Data on 1 sequence can be found in US8470964B2, “Peptides derived from NCAM (FGLs)” (Enkam Pharmaceuticals A/S, priority 2007, dated 2013).

For this assay, the system named is (25-35) β-amyloid peptide fragment induced cognitive deficits model in rats. In words: (25-35) β-amyloid induced cognitive deficits, intranasal administration, SRT. In kind it is in vivo, rat. Conditions: intranasal, 15 daily doses from day 7 to 21, test 24 hrs after the last administration. The text has this: FIG. 9. Effects of intranasal administration of FGLs on the β-amyloid neurotoxicity induced deficit on performance in the Social Recognition Test. Rats received an intranasal administration of FGLs at the stated doses or vehicle daily at days 7 to 21 after i.c.v. administration of the (25-35) β-amyloid (A-β) fragment. 8-10 animals per group. Results are expressed as Means and SEM of Recognition Ratio and analyzed by one-sample t-test: **p<0.05.
In this study, the (25-35) β-amyloid peptide fragment induced cognitive deficits model in rats was used to investigate the dose-response (0.08, 0.32 or 1.28 mg/kg) effect of FGLs administered intranasally daily for 15 doses from day 7 to day 21 post β-amyloid peptide i.c.v. injection. The social memory performance was evaluated using the SRT, 22 days after the β-amyloid injection. A statistically significant impairment of short-term memory was observed as a consequence of the (25-35) β-amyloid neurotoxicity in the rats receiving the (25-35) β-amyloid fragment plus vehicle.

With “EVYVVAENQQGKSKA [FGL, reference compound]”, the “minimum effective dose, impaired short-term memory (SRT)” value is recorded as 1.28 mg/kg.
